Data published in patent US20250127890A1, “COMPOSITIONS AND METHODS FOR TREATING CORONAVIRUS INFECTIOUS DISEASE-19 (COVID-19)” (THE BOARD OF REGENTS OF THE UNIVERSITY OF OKLAHOMA, priority 2021, published 2025).
Where two headings read alike, the source gives them in different places.

What was measured:
[1] = test system: SARS-CoV-2-infected Calu3 cells; type: cell-based; settings: DCLK1-IN-1 5 μM, tasquinimod 10 μM or both
[2] = test system: SARS-CoV-2 infected Calu-3 lung cells; test: Label-free quantitative proteomic analysis of SARS-CoV-2-infected Calu-3 lung cells; type: cell-based
[3] = test system: SARS-CoV-2-infected Huh7-RFP-DCLK1 cells with normal human PBMCs; test: Multiplex cytokine assay of spent supernatants from infected Huh7-RFP-DCLK1 / PBMC mixed cocultures; type: cell-based; settings: 5 μM, 48 h
Method: Tissue culture supernatants and sera were analyzed using a custom-made human Magnetic Luminex Assay Kit (LXSAHM-15; R&D Systems) for the following analytes: TNF-α, IFNα, IFNβ, IFNγ, IL-1β, IL-2, IL-4, IL-6, IL-8, IL-10, IL-17, CCL2, M-CSF, GM-CSF, and VEGF-A. Samples were processed in replicates and quantified using the BioPlex 200 System (Bio-Rad). The concentration of each analyte was expressed as pg/mg of total protein. Analyte levels in normal serum or control supernatants were set at 100% when compared to test samples.
To assess the effect of DCLK1 kinase on cytokine production during SARS-CoV-2 infection, we mixed infected Huh7-RFP-DCLK1 cells with normal human PBMCs in the presence of 5 μM DCLK1-IN-1 for 48 h. Spent supernatants were assayed for cytokines/chemokines/growth factors using a multiplex system. As with infected Calu3 cells, DCLK1-IN-1 blocked Spike (FIG. 8A, lane 2, Set 2). […] However, PBMCs were responsive to SARS-CoV-2-infected cells as indicated by increased secretion of TNF-α, IL-1β, IL-6, and IL-10 in spent media compared to uninfected cells (FIG. 8B). DCLK1-IN-1 treatment led to downregulation of cytokines involved in inflammation and viral response (TNF-α, IFNα, IFNγ, and IL-10; FIG. 8C). […] Since CCL2 participates in normal wound healing, an increase in this chemokine may contribute to tissue healing after viral clearance. […]

[4] = mice, cited from earlier work
[5] = test system: SARS-CoV-2; type: cell-based
[6] = target: T1, kinase domain of DCLK1 (Homo sapiens, UniProt O15075); settings: cited from earlier work
T1 sequence (O15075 390-647 limits assumed): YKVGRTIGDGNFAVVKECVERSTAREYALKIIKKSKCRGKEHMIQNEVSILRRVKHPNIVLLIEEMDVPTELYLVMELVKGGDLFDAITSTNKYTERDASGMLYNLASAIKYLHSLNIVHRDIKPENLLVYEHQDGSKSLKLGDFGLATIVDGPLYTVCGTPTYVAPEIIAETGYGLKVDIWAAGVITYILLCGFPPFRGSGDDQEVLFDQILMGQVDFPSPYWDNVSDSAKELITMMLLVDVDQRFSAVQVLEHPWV

[7] = test system: SARS-CoV-2; type: in vivo, K18-hACE2 mice; settings: 10 mg/kg i.p. daily for 4 days
[8] = test system: SARS-CoV-2; test: TCID50 titer of infectious SARS-CoV-2 particles in culture supernatants of infected Calu3 cells; type: cell-based; settings: treated vs untreated
[9] = test system: Omicron B.1.1.529 virus; type: cell-based, SARS-CoV-2; settings: 5 μM and 10 μM, in comparison to vehicle-treated control
[10] = test system: SARS-CoV-2 nucleocapsid and membrane proteins; test: Phosphoproteomic analysis of viral proteins in infected Calu3 cells; type: cell-based
[11] = test system: SARS-CoV-2; type: cell-based; remark: listed apart in the source
[12] = test system: SARS-CoV-2; test: Western blot of viral proteins and DCLK1 in SARS-CoV-2-infected Calu3 lung cells; type: cell-based
[13] = target: T2, GM-CSF (Homo sapiens, UniProt P04141); settings: clinical trial; cited from earlier work
T2 construct: host or cells: COVID-19 patients (endogenous GM-CSF)
T2 sequence (P04141 18-144): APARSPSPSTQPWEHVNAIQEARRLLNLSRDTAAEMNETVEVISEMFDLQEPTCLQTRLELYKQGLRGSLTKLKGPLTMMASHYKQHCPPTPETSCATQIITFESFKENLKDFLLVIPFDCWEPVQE

## COc1cc(N2CCN(C)CC2)ccc1Nc1ncc2c(n1)N(C)c1ccccc1C(=O)N2CC(F)(F)F [DCLK1-IN-1]
[1]
  active forms of caspase 1 and IL-1β: downregulated
[2]; infected Calu3, proteomics
  nucleocapsid protein abundance: not decreased
  viral structural proteins (membrane and Spike) and accessory proteins (ORF7a, ORF8, and ORF9b): significantly downregulated
[2]; infected Calu3, proteomics, GSPT2, SAMD4B, WDR75 validated by Western blot
  8 host proteins upregulated by SARS-CoV-2 (GSPT2, LGALS1, ENO2, H3C15, LXN, SAMD4B, SPTA1 and WDR75): normalized
[2]; several of these proteins, data not shown
  21 cellular proteins downregulated by SARS-CoV-2 infection: restored to normal
[3]
  CCL2 (MCP-1): increased expression
  cytokines involved in inflammation and viral response (TNF-α, IFNα, IFNγ, and IL-10): downregulation
[4]; 100 mg/kg
  adverse effects / body weight at MTD: no adverse effects or loss of body weight
[4]
  half-life: 2.09 h
  maximum tolerated dose (MTD): 100 mg/kg
[5]
  Spike by immunofluorescence: downregulation of Spike
[6]; binds the kinase domain of DCLK1
  Kd: 109 nM
[7]
  Dclk1 and S100A9 in lung (confocal microscopy): low expression
  expression of Spike and nucleocapsid proteins in lung (Western blot): reduced or absent
  staining for Spike in lung (confocal microscopy): rare or weak
[7]; lungs collected on day 5
  lung histopathological features (H&E): significantly improved
[8]; 5 μM
  decrease in infectivity (TCID50): 4 fold
[8]; 10 μM
  decrease in infectivity (TCID50): 10 fold
[9]
  inhibition of Omicron virus production: 80%-90%
[10]; compared with untreated and vehicle-treated infected cells
  phosphorylation of five serine residues (S2, S176, S180, S201, and S202) of nucleocapsid protein: significant decrease
[10]; infected cells, phosphoproteomics
  phosphorylation of viral membrane protein (M) at S212, S213 and S214: significantly reduced
[11]
  effect on Spike: blocked Spike
[12]; 5 μM, infected Calu3, Western blot
  loss of intracellular viral proteins (nucleocapsid and Spike): ~65%
[12]; 10 μM, infected Calu3, Western blot
  loss of intracellular viral proteins (nucleocapsid and Spike): ~95%
[12]; infected Calu3, Western blot
  DCLK1 protein levels: not significantly affected
[12]; infected Calu3, Western blot, compared to untreated control
  reduction in intracellular viral proteins (nucleocapsid and Spike): strong dose-response reduction

## COc1cc(N2CCN(C)CC2)ccc1Nc1ncc2c(n1)N(C)c1ccc(C)cc1C(=O)N2CC(F)(F)F [DCLK1-NEG]
[6]; structural analog used as negative control
  binding affinity: low binding affinity
[12]
  effect on Spike: did not reduce Spike

## COc1cccc2c1c(O)c(C(=O)N(C)c1ccc(C(F)(F)F)cc1)c(=O)n2C [tasquinimod]
[1]
  active forms of caspase 1 and IL-1β: downregulated

B1: lenzilumab: a GM-CSF inhibitor (antibody, chains of the INN, looked up, V domains shown)
VH: QVQLVQSGAEVKKPGASVKVSCKASGYSFTNYYIHWVRQAPGQRLEWMGWINAGNGNTKYSQKFQGRVTITRDTSASTAYMELSSLRSEDTAVYYCVRRQRFPYYFDYWGQGTLVTVSS
VL: EIVLTQSPATLSVSPGERATLSCRASQSVGTNVAWYQQKPGQAPRVLIYSTSSRATGITDRFSGSGSGTDFTLTISRLEPEDFAVYYCQQFNKSPLTFGGGTKVEIK
[13]
  survival of COVID-19 patients: significantly improved
